Measured values taken from ChEMBL document CHEMBL4033638, “Effect of natural and semi-synthetic cadinanes from Heterotheca inuloides on NF-κB, Nrf2 and STAT3 signaling pathways and evaluation of their in vitro cytotoxicity in human cancer cell lines” (Bioorg Med Chem, 2017).
Active and inactive are the calls of the source. The calls are words filed in the database; no cut-off is given here.

Tested on: U-251
Test: Antiproliferative activity against human U251 cells at 50 uM after 48 hrs by sulforhodamine B assay relative to control
Assay type: functional
Settings: U-251, 48 h

SMILES | inhibition at 50 µM
CC1=CC[C@H](C(C)C)c2cc(C)c(OC(=O)c3ccc(C)cc3)cc21 | 67.7%

Tested on: HCT-15
Test: Antiproliferative activity against human HCT15 cells at 50 uM after 48 hrs by sulforhodamine B assay relative to control
Assay type: functional
Settings: HCT-15, 48 h

SMILES | inhibition at 50 µM
CC1=CC[C@H](C(C)C)c2cc(C)c(OC(=O)c3ccc(C)cc3)cc21 | 78.9%

Tested on: K562
Test: Antiproliferative activity against human K562 cells at 50 uM after 48 hrs by sulforhodamine B assay relative to control
Assay type: functional
Settings: K562, 48 h

SMILES | inhibition at 50 µM
CC1=CC[C@H](C(C)C)c2cc(C)c(OC(=O)c3ccc(C)cc3)cc21 | 100%

Tested on: HaCaT
Test: Induction of ROS accumulation in human HaCaT cells at 10 to 100 uM by CM-H2DCFDA dye-based fluorescence assay
Assay type: functional, cell-based
Settings: not given

SMILES | Activity
CC1=CC[C@H](C(C)C)c2cc(C)c(OC(=O)c3ccc(C)cc3)cc21 | inactive

Tested on: HaCaT
Test: Antioxidant activity in human HaCaT cells assessed as inhibition of TBHP-induced ROS accumulation by measuring ROS level at 10 uM preincubated with cells followed by TBHP addition by CM-H2DCFDA dye-based fluorescence assay relative to control
Assay type: functional
Parameters: scale not given: the % may be the effect or the level left
Settings: not given

SMILES | Activity
CC1=CC[C@H](C(C)C)c2cc(C)c(OC(=O)c3ccc(C)cc3)cc21 | 74.7%

Tested on: NIH3T3
Test: Cytotoxicity against mouse NIH/3T3 cells infected with lentivirus encoding nuclear restricted red fluorescent protein assessed as reduction in cell viability up to 100 uM after 6 hrs by microscopic method
Assay type: cell-based
Settings: nih3t3, 6 h

SMILES | Activity
CC1=CC[C@H](C(C)C)c2cc(C)c(O)cc21 | Non-Toxic
Cc1cc2c(C(C)C)ccc(C)c2cc1O | Non-Toxic
CC1=CC[C@H](C(C)C)c2cc(C)c(OC(=O)c3ccc(C)cc3)cc21 | Non-Toxic

Tested on: SK-LU-1
Test: Antiproliferative activity against human SK-LU-1 cells at 50 uM after 48 hrs by sulforhodamine B assay relative to control
Assay type: functional
Settings: SK-LU-1, 48 h

SMILES | inhibition at 50 µM
CC1=CC[C@H](C(C)C)c2cc(C)c(OC(=O)c3ccc(C)cc3)cc21 | 85.4%

Target: T1, Nuclear factor erythroid 2-related factor 2 (Homo sapiens) (UniProt Q16236)
T1 sequence (whole entry): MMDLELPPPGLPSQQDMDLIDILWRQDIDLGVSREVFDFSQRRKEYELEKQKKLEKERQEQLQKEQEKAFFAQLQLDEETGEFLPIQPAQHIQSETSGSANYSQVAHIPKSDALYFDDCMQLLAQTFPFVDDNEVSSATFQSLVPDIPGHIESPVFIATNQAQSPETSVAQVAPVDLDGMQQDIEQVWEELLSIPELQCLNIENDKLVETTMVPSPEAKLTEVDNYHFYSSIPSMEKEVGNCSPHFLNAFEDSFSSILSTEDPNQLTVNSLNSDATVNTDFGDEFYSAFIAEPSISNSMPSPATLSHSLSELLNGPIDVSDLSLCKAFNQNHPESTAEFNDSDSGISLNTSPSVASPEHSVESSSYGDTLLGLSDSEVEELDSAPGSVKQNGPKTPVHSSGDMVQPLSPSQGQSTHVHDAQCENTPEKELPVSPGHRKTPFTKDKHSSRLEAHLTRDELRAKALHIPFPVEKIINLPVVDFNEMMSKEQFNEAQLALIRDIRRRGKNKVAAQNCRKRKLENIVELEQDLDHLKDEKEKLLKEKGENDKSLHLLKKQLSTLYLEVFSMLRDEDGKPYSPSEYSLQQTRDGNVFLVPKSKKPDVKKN
Test: Activation of Nrf2 in human HaCaT-ARE-Luc cells at 50 uM after 6 hrs by luciferase reporter gene assay relative to control
Assay type: cell-based
Settings: not given

SMILES | fold change (FC)
CC1=CC[C@H](C(C)C)c2cc(C)c(O)cc21 | 3.1
Cc1cc2c(C(C)C)ccc(C)c2cc1O | 1.7
CC1=CC[C@H](C(C)C)c2cc(C)c(OC(=O)c3ccc(C)cc3)cc21 | 9.4

Tested on: PC-3
Test: Antiproliferative activity against human PC3 cells at 50 uM after 48 hrs by sulforhodamine B assay relative to control
Assay type: functional
Settings: PC-3, 48 h

SMILES | inhibition at 50 µM
CC1=CC[C@H](C(C)C)c2cc(C)c(OC(=O)c3ccc(C)cc3)cc21 | 49.6%

Tested on: not listed separately
Test: Inhibition of TNFalpha-stimulated NFkappaB (unknown origin) expressed in mouse NIH-3T3-KBFLuc cells preincubated for 15 mins followed by TNFalpha stimulation for 6 hrs by luciferase reporter gene assay
Assay type: cell-based
Settings: Homo sapiens

SMILES | IC50
CC1=CC[C@H](C(C)C)c2cc(C)c(O)cc21 | 72 µM
Cc1cc2c(C(C)C)ccc(C)c2cc1O | 16.5 µM
CC1=CC[C@H](C(C)C)c2cc(C)c(OC(=O)c3ccc(C)cc3)cc21 | 47.1 µM

Tested on: K562
Test: Antiproliferative activity against human K562 cells after 48 hrs by sulforhodamine B assay
Assay type: functional, cell-based
Settings: K562, 48 h

IC50 | SMILES
30.9 µM | CC1=CC[C@H](C(C)C)c2cc(C)c(OC(=O)c3ccc(C)cc3)cc21

Tested on: SK-LU-1
Test: Antiproliferative activity against human SK-LU-1 cells after 48 hrs by sulforhodamine B assay
Assay type: functional, cell-based
Settings: SK-LU-1, 48 h

IC50 | SMILES
33.9 µM | CC1=CC[C@H](C(C)C)c2cc(C)c(OC(=O)c3ccc(C)cc3)cc21

Tested on: HaCaT
Test: Antioxidant activity in human HaCaT cells assessed as inhibition of TBHP-induced ROS accumulation by measuring ROS level at 100 uM preincubated with cells followed by TBHP addition by CM-H2DCFDA dye-based fluorescence assay relative to control
Assay type: functional
Parameters: scale not given: the % may be the effect or the level left
Settings: not given

SMILES | Activity
CC1=CC[C@H](C(C)C)c2cc(C)c(OC(=O)c3ccc(C)cc3)cc21 | 25.9%

Tested on: HCT-15
Test: Antiproliferative activity against human HCT15 cells after 48 hrs by sulforhodamine B assay
Assay type: functional, cell-based
Settings: HCT-15, 48 h

IC50 | SMILES
40.3 µM | CC1=CC[C@H](C(C)C)c2cc(C)c(OC(=O)c3ccc(C)cc3)cc21

Tested on: HaCaT
Test: Antioxidant activity in human HaCaT cells assessed as inhibition of TBHP-induced ROS accumulation by measuring ROS level preincubated with cells followed by TBHP addition by CM-H2DCFDA dye-based fluorescence assay relative to control
Assay type: functional
Parameters: scale not given: the % may be the effect or the level left
Settings: not given

SMILES | Activity
CC(=O)N[C@@H](CS)C(=O)O [ACETYLCYSTEINE] | 1%

Tested on: HaCaT
Test: Antioxidant activity in human HaCaT cells assessed as inhibition of TBHP-induced ROS accumulation by measuring ROS level at 75 uM preincubated with cells followed by TBHP addition by CM-H2DCFDA dye-based fluorescence assay relative to control
Assay type: functional
Parameters: scale not given: the % may be the effect or the level left
Settings: not given

SMILES | Activity
CC1=CC[C@H](C(C)C)c2cc(C)c(OC(=O)c3ccc(C)cc3)cc21 | 52%

Species on record: Mus musculus
Test: Inhibition of IKK in mouse NIH-3T3-KBF-Luc cells assesed as downregulation of TNFalpha-stimulated phospho-IkappaBalpha protein expression levels at 10 to 100 uM preincubated for 15 mins followed by TNFalpha stimulation for 20 mins by Western blot analysis
Settings: not given

inhibition | SMILES
Active | CC1=CC[C@H](C(C)C)c2cc(C)c(OC(=O)c3ccc(C)cc3)cc21

Tested on: not listed separately
Test: Inhibition of TNFalpha-stimulated NFkappaB (unknown origin) expressed in mouse NIH-3T3-KBFLuc cells at 50 uM after 6 hrs by luciferase reporter gene assay relative to control
Assay type: cell-based
Settings: Homo sapiens

SMILES | inhibition
CC1=CC[C@H](C(C)C)c2cc(C)c(O)cc21 | 50.8%
Cc1cc2c(C(C)C)ccc(C)c2cc1O | 61.5%
CC1=CC[C@H](C(C)C)c2cc(C)c(OC(=O)c3ccc(C)cc3)cc21 | 76%

Tested on: MCF7
Test: Antiproliferative activity against human MCF7 cells at 50 uM after 48 hrs by sulforhodamine B assay relative to control
Assay type: functional
Settings: MCF7, 48 h

SMILES | inhibition at 50 µM
CC1=CC[C@H](C(C)C)c2cc(C)c(OC(=O)c3ccc(C)cc3)cc21 | 65%

Tested on: HaCaT
Test: Antioxidant activity in human HaCaT cells assessed as inhibition of TBHP-induced ROS accumulation by measuring ROS level at 50 uM preincubated with cells followed by TBHP addition by CM-H2DCFDA dye-based fluorescence assay relative to control
Assay type: functional
Parameters: scale not given: the % may be the effect or the level left
Settings: not given

SMILES | Activity
CC1=CC[C@H](C(C)C)c2cc(C)c(OC(=O)c3ccc(C)cc3)cc21 | 55.8%

Target: Signal transducer and activator of transcription 3 (Homo sapiens) (UniProt P40763)
Test: Inhibition of IFNgamma-stimulated STAT3 (unknown origin) activation expressed in human HeLa cells at 50 uM after 6 hrs by luciferase reporter gene assay relative to control
Assay type: cell-based
Settings: not given

Signal transducer and activator of transcription 3 (Homo sapiens), sequence (P40763 whole entry): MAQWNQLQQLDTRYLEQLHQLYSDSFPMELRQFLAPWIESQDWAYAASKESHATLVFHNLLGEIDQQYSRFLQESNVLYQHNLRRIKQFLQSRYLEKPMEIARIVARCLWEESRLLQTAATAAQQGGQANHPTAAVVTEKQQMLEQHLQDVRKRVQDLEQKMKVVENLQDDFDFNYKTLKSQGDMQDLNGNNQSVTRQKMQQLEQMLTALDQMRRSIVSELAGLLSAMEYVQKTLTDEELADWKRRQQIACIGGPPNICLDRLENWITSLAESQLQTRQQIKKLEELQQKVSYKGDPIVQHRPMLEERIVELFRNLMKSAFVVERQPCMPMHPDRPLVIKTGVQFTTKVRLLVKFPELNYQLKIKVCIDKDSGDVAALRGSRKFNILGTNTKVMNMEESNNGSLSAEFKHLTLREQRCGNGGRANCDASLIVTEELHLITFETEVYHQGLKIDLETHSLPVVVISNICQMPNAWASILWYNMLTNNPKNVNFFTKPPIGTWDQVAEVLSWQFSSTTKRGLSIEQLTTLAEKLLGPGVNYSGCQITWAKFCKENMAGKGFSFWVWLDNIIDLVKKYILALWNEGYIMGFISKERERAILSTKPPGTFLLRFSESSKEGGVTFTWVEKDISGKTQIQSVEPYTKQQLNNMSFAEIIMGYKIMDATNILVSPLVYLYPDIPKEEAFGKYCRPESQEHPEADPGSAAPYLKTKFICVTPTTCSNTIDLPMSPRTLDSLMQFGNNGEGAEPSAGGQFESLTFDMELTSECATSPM

SMILES | inhibition
CC1=CC[C@H](C(C)C)c2cc(C)c(O)cc21 | 2.1%
Cc1cc2c(C(C)C)ccc(C)c2cc1O | 3.5%
CC1=CC[C@H](C(C)C)c2cc(C)c(OC(=O)c3ccc(C)cc3)cc21 | 3.1%

Tested on: HaCaT
Test: Antioxidant activity in human HaCaT cells assessed as inhibition of TBHP-induced ROS accumulation by measuring ROS level at 25 uM preincubated with cells followed by TBHP addition by CM-H2DCFDA dye-based fluorescence assay relative to control
Assay type: functional
Parameters: scale not given: the % may be the effect or the level left
Settings: not given

SMILES | Activity
CC1=CC[C@H](C(C)C)c2cc(C)c(OC(=O)c3ccc(C)cc3)cc21 | 64.5%
